Assay results as given in publication PMC11079029, “Intramolecular autoinhibition regulates the selectivity of PRPF40A tandem WW domains for proline-rich motifs” (Nature Communications, 2024).
Like-named read-outs stand apart in the source and are kept apart here.

Key:
[1] = tested on: GFP-tagged PRPF40A-Nter-MUT; assay: SILAC GFP-immunoprecipitation with quantitative mass spectrometry, mutant construct; assay type: binding, human (Hela cells); settings: quantitative MS, Hela cells, protein by gene name
Method: The PRPF40A N-terminal region (isoform 2, residues 1-221) was PCR-amplified from RPE1 cDNA (ATCC, Cat# CRL-4000) cDNA. The sequence was amplified in two fragments and both fragments were combined by overhang. All PCRs were carried out using Q5 Polymerase (NEB) according to manufacturer’s protocol. The resulting PRPF40A N-terminal region was cloned into a GFP-expressing pcDNA5 vector (see pcDNA5 GFP vector in ref. [28]) using Q5 Site-Directed Mutagenesis Kit (NEB). Nter-MUT, containing the PPVP/PALPP motifs changed to AAAA/AAAAA, was obtained by mutating the N-ter-WW12-containing plasmid with Q5 site-directed mutagenesis. Plasmids were transformed into DH5alpha chemically competent cells. After culturing, DNA isolation was performed with either ZymoPURE Plasmid Miniprep Kit (Zymo Research) or QIAGEN Plasmid Plus Midi Kit (Qiagen). The sequence was confirmed by Sanger Sequencing (GATC Eurofins). All used oligonucleotides are shown in Supplementary Table 6.
Hela cells (ATCC, Cat# CCL-2, RRID:CVCL_0030) were cultured in DMEM SILAC medium (Thermo Fisher) supplemented with 10% filtered FBS (Sigma-Aldrich) and 1% penicillin-streptomycin (Thermo-Fisher). The SILAC medium contains either light (Arg0, Lys0), medium (Arg6, Lys4) or heavy (Arg10, Lys8) isotopes (Cambridge Isotopes Laboratories). Hela cells were cultivated for 14 days in SILAC medium to assure sufficient isotope incorporation. For transfection, 7 × 10^6 Hela cells were seeded in a 15 cm culture dish in 20 ml of respective SILAC medium and grown for 24 h. The cells were then transfected with 20 µg of plasmids expressing either GFP (Control), GFP-tagged N-ext-WW12 or GFP-tagged-N-ext-WW12-MUT utilizing 64 µl FuGENE (Promega) (ratio 1:3.2), according to manufacturer’s protocol.
24 h post-transfection, cells were washed twice in ice-cold PBS and harvested in 1 ml mRIPA buffer (50 mM Tris, 150 mM NaCl, 1 mM EDTA, 1% NP-40, 0.1% Na-deoxycholate), supplemented with 2 µl Turbo-DNase (Thermo Fisher) and 3 µl protease-inhibitor cocktail cOmplete (Sigma-Aldrich). Cell lysates were cleared by centrifugation at 16,000 × g, 4 °C, 15 min and concentration was measured using Pierce BCA Protein Assay kit (Thermo Scientific). The expressed constructs were pulled down by incubating 2.5 mg of lysate with 20 μl GFP-nanobody agarose beads (ChromoTek, GTA-20) for 1 h at 4 °C under constant agitation. Subsequently, beads were washed three times with mRIPA buffer without supplements, then eluted in 1X NuPAGE LDS sample buffer (Thermo Scientific). To detach the proteins from the beads, the eluate was heated to 70 °C for 10 min To evaluate the success of the immunoprecipitation, input (1%) and IP samples were analyzed on a NuPAGE 4–12% Bis-Tris-Acrylamide gel (Thermo Fisher) using NuPAGE MOPS SDS running buffer (Thermo Fisher). Proteins were stained using Sypro Ruby protein gel stain (Thermo Fisher) according to manufacturer’s protocol.
The eluted proteins of three SILAC states (light, medium, heavy) were combined. The proteins were then reduced in DTT, alkylated in iodoacetamide, and purified using the SP3 paramagnetic bead approach. This was followed by overnight enzymatic digestion using trypsin (1 µg per sample) in 50 mM ammonium bicarbonate at 37 °C. The peptide solution was then purified by solid phase extraction in C18 StageTips[99].
Peptides were separated by online reverse phase liquid chromatography using the EASY-nLC 1000 system (Thermo Scientific) in a 30-cm analytical column (inner diameter: 75 μm; heated at 50 °C) packed in-house with ReproSil-Pur 120 C18-AQ 1.9-μm beads (Dr. Maisch GmbH). The gradient separation was performed through a 105-min non-linear gradient of 1.6–32% acetonitrile with 0.1% formic acid at a nanoflow rate of 225 nl/min. The eluted peptides were sprayed directly by electrospray ionization into a Q Exactive Plus Orbitrap mass spectrometer (Thermo Scientific). […]

[2] = molecular target: T1, PRPF40A WW12 (tandem WW domains, residues 141–236) (Homo sapiens, UniProt O75400); assay: ITC of PRPF40A WW12 with GB1-tagged proline-rich peptides and constructs; assay type: binding; settings: for Kd: ITC
T1 construct: WW12 141–236, WW12long 141–248, and N-ext-WW12 56–236; 6xHis-TEV site (N, cleaved yes); made in house; host or cells: Escherichia coli BL21(DE3)
Source text: PRPF40A isoform 1 sequences (N-ter 1–310, WW12short 141–223, WW12 141–236, WW12long 141–248, and N-ext-WW12 56–236) were amplified from a purchased DNA fragment (IDT) and cloned using NcoI and KpnI restriction sites into a pETM11 vector encoding 6xHis and TEV cleavage site as a N-terminal tag. SF1 (Pro A 410–468, Pro B 468–539, Pro C 539–594, Pro D 594–639, Pro BC 468–594, Pro CD 539–639, Pro BCD 468–639 and Pro ABCD 410–639) and SF3A1 (Middle Pro 364–413 and C-ter Pro 552–683) constructs were prepared in a similar manner using a pET24 vector with a 6xHis, GB1 and TEV cleavage site as N-terminal fusion cassette. 16-mer SF1 constructs (Table 1) and polyproline peptides (P6, P8, P10, P13, P16, P19, P22, P25, and P29) were cloned in the same pET24 vector with GB1 tag by direct ligation of purchased oligonucleotides (Eurofins). All peptide sequences contained N and C-terminal common residues to avoid boundary effects on binding: TEVsite-GAMSGS-peptide-SGSN. Mutants of PRPF40A WW12 and N-ext-WW12 constructs were prepared by site-directed mutagenesis. The truncated version of PRPF40A WW12 (141-217) was a gift from Dr. María Macías (IRB, Spain). All used oligonucleotides were purchased from Eurofins Genomics and are shown in Supplementary Table 6.
Resuspended cell pellets in 20 mM Tris pH 8.0, 500 mM NaCl, 10 mM imidazole, 0.5 mM TCEP, and protease inhibitors mix (SERVA) were lysed by cell disruption in a French press. Clear lysates, after centrifugation (at 18,000 g) and filtering, were loaded into Ni-NTA resin. The resin was then washed with 20 mM imidazole containing buffer, and the desired protein was eluted with 500 mM imidazole. PRPF40A constructs were then subjected to TEV protease treatment (homemade at a final concentration of ≈50 μg/ml), dialyzed overnight at 4 °C against an imidazole-free buffer, and then loaded again to Ni-NTA resin; desired digested proteins were obtained in the flow-through and wash fractions while uncleaved protein, TEV protease, and impurities remained bound to the resin. Cleaved PRPF40A proteins and GB1-tagged SF1, SF3A1, and polyproline constructs were further purified by size-exclusion chromatography on a HiLoad 16/60 Superdex 75 column (GE Healthcare) equilibrated with 20 mM sodium phosphate, pH 6.5, 100 mM NaCl and 1 mM DTT buffer. For the purification of PRPF40A WW12 in complex with SF1 peptide, cell pellets of recombinant expression for both proteins were mixed and processed together following the Ni-NTA—TEV digestion—reverse Ni-NTA—SEC-75 protocol; where the complex remained bound in a 1:1 stoichiometry throughout the whole purification (corroborated by NMR). Molecular weight of each sample was confirmed by mass spectrometry, purity was checked by PAGE-SDS, and protein concentrations were determined from the aromatic contribution to the UV absorbance spectra at 280 nm.
Experiments were conducted on a MicroCAl PEAQ-ITC (Malvern Instruments, UK) at 25 °C in 20 mM sodium phosphate pH 6.5 and 100 mM NaCl. PRPF40A was titrated into N-terminal GB1 tagged SF1 or polyproline constructs and vice versa with similar results. Protein concentrations in the cell were around 20–40 μM, while in the syringe ranged between 200 and 500 μM. Experiments were performed at least in duplicate with injections of 1.5 μL (0.4 μL for first point) separated by 150 s delays to recover thermal power baseline and continuous stirring in the cell (750 rpm) for correct mixing. The reference cell was filled with water in all experiments. Data were processed by removing the blank experiment (using digested GB1 fusion protein) and adjusted to one-site binding model with Malvern PEAQ-ITC Analysis software (Malvern Instruments, UK).

[3] = tested on: PRPF40A N-ext-WW12; assay: NMR titration (1H-15N and 1H-13C HSQC) of N-ext-WW12 with SF1 peptides; assay type: binding, human; settings: NMR titration of N-ext-WW12, ratios 1:1 up to 1:4
Method: NMR samples were prepared at concentrations ranging 100–1000 μM in buffer containing 20 mM sodium phosphate pH 6.5, 100 mM NaCl, 1 mM DTT, and 10% or 100% D2O, and measured at 25 °C (except stated otherwise) in 900-, 800-, 600- and 500-MHz Bruker Avance III NMR spectrometers equipped with cryogenic triple resonance gradient probes. Topspin 4.1.0 (Bruker) software was used for NMR data acquisition. Spectra were processed with NMRpipe 8.9[76] and analyzed using ccpnNMR Analysis 2.5 software.
^15N-labeled PRPF40A proteins (WW1, WW2, WW12, and N-extWW12) at around 100 μM concentration were titrated with increasing concentration ratios of polyproline or SF1 peptides (GB1 tagged) until reaching saturation, when possible; ^1H-^15N HSQC experiments and in some cases ^1H-^13C HSQC experiments (using double-labeled PRPF40A proteins) were acquired at each titration point. The chemical shift perturbation (CSP) was weighted using the Eqs. (1) and (2)[89].1 CSP(HN)=0.5⋅ΔδH2+0.14⋅ΔδN2 2 CSP(HC)=0.5⋅ΔδH2+0.3⋅ΔδC2

T1 sequence (O75400 141-236): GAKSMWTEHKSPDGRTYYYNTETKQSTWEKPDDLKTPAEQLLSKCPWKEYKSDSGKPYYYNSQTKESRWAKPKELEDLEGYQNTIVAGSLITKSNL

Substance	Immunoprecipitation enrichment MUT vs WT, log2 FC [1]	also measured
CCNT1;CCNT2	1.3354	
CDK9	1.401	
CDK12	1.215	
EFTUD2	1.181	
INF2	1.013	
MPPPPMGMMPPPPPPP [SF1_470–485]		N (sites) ([2]; ITC as E1, peptide in the cell, WW tandem in the syringe, N >1 = more than one WW tandem per peptide): 0.90 ± 0.16 sites; DH ([2]; ITC binding enthalpy, as E1): -13.6 ± 0.813 kcal/mol; Kd ([2]; 25 °C, 20 mM sodium phosphate pH 6.5, 100 mM NaCl, GB1-tagged polyproline or SF1 16-mer peptide in the cell, WW tandem in the syringe, one-site model, apparent Kd, average of at least duplicates, read-out: Kd): 13.9 ± 2.3 µM; Kd ([2]; SF1 peptides, individual value 1 (replicate 1), read-out: Kd Values with WW12, individual value): 10.9 µM; Kd ([2]; SF1 peptides, individual value 2 (replicate 2), read-out: Kd Values with WW12, individual value): 13.3 µM; Kd ([2]; SF1 peptides, individual value 3 (replicate 3), read-out: Kd Values with WW12, individual value): 14 µM; Kd ([2]; SF1 peptides, individual value 4 (replicate 4), read-out: Kd Values with WW12, individual value): 17.3 µM; displacement of the intramolecular N-terminal motifs (methyl signals Val 80, Val 129) [3]: cannot fully displace the intramolecular motifs
SAE1	1.104	
SNRNP200	1.2097	
WIZ	1.529	
